According to PubChem BioAssay (NCI):
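Protocol summary: plate cells (96-well), add compound at 5 concentrations, incubate 48 h, interpolate endpoints linearly. Here, GI50 denotes the concentration required for 50% inhibition of growth. TGI denotes the concentration required for complete inhibition of growth.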

Assays:
Assay in all cases: NCI-60 cell line screen, 48 h
A549 NSCLC = system: A549 NSCLC
HL-60(TB) leukemia = system: HL-60(TB) leukemia
MOLT-4 leukemia = system: MOLT-4 leukemia
OVCAR-8 ovarian = system: OVCAR-8 ovarian
ACHN renal = system: ACHN renal
RXF 393 renal = system: RXF 393 renal
HCT-15 colon = system: HCT-15 colon
SF-268 CNS = system: SF-268 CNS
EKVX NSCLC = system: EKVX NSCLC

SMILES | GI50 (A549 NSCLC) [µM] | TGI (A549 NSCLC) [µM] | GI50 (HL-60(TB) leukemia) [µM] | TGI (HL-60(TB) leukemia) [µM] | GI50 (MOLT-4 leukemia) [µM] | TGI (MOLT-4 leukemia) [µM] | GI50 (OVCAR-8 ovarian) [µM] | TGI (OVCAR-8 ovarian) [µM] | GI50 (ACHN renal) [µM] | TGI (ACHN renal) [µM] | GI50 (RXF 393 renal) [µM] | TGI (RXF 393 renal) [µM] | GI50 (HCT-15 colon) [µM] | TGI (HCT-15 colon) [µM] | GI50 (SF-268 CNS) [µM] | TGI (SF-268 CNS) [µM] | GI50 (EKVX NSCLC) [µM] | TGI (EKVX NSCLC) [µM]
CCN(CC)CCCC(C)Nc1c2ccc(Cl)cc2nc2ccc(O)cc12 (stereo unspecified) | 1.47 | 3.67 | 2.06 | 6.25 | 1.31 | 13.6 | 1.73 | 11.7 | 1.17 | 2.81 | 1.61 | 4.27 | 2.98 | 11 | 2.04 | 11.3 | 2.94 | 11.6
O=C1Nc2ccccc2C1(c1ccc(O)cc1)c1ccc(O)cc1 | 27.9 | > 96.7 | 22.9 | 63 | 26.6 | 98.1 | 0.273 | 77.5 | 17.9 | > 100 | 0.445 | 13.4 | 19.2 | > 100 | 24.4 | 77.9 | 14.5 | 90
Nc1nccc(-c2c(-c3ccc(F)cc3)ncn2C2CCC(O)CC2)n1 (stereo unspecified) | 4.03 | > 25 | 24.4 | > 25 | 22.5 | > 25 | 12.3 | > 25 | 2.83 | > 25 | 4.77 | > 23.8 | 7.15 | > 25 | 10.2 | > 25 | 8.57 | > 25
COc1cc2ncn(-c3cc(OCc4cccs4)c(C(N)=O)s3)c2cc1OC | 1.87 | > 17.5 | 0.804 | 8.73 | 1.07 | > 25 | 1.52 | > 17 | 6.39 | > 25 | 1.31 | > 15.7 | 1.64 | > 25 | 1.95 | > 25 | 7.93 | > 25
COc1cc2cc(Oc3ccc(NC(=O)Nc4ccc(Cl)c(C(F)(F)F)c4)cc3)c(C)nc2cc1OCCN1CCOCC1 | 2.13 | > 100 | 2.32 | 7.55 | 1.48 | 10.5 | 2.67 | > 100 | 2.03 | 11.6 | 1.77 | 3.99 | 1.45 | 3.18 | 2.59 | 8.44 | 2.07 | 13.7
O/N=C/c1ncccc1C1OCCO1 | – | > 100 | – | > 100 | – | > 100 | – | > 100 | – | > 100 | – | > 100 | – | > 100 | – | > 100 | – | > 100
O=C(O)/C=C(\c1nc2ccc([N+](=O)[O-])cc2[nH]1)c1cc(Cl)ccc1O | 3.07 | 14.1 | 2.42 | 30.4 | 2.26 | 9.7 | 3.28 | > 100 | 2.38 | 10.6 | 3.55 | 21.2 | 2.9 | 20.3 | 3.62 | 28.3 | 2.44 | 28.2
Cc1c(C(=O)C/C(=N/NC(=O)C[N+](C)(C)C)C(=O)Nc2ccc(Cl)cc2)[n+](=O)c2ccccc2n1O | – | > 100 | – | > 100 | – | > 100 | – | > 100 | – | > 100 | – | > 100 | – | > 100 | – | > 100 | – | > 100
